Source: US20240139190A1, “NOVEL ANTIPARASITIC COMPOUNDS AND METHODS” (The Board of Regents of The University of Texas System, priority 2019, published 2024)

Assays:
[1] = system: L. amazonensis axenic amastigotes; assay: alamarBlue viability / concentration-response assay, axenic amastigotes; format: cell-based, Leishmania amazonensis; settings: Leishmania amazonensis, 72 h, L. amazonensis, stage not stated; read-out: EC50^72 h for La
Procedure: Leishmania amazonensis axenic amastigotes (100 μL, 2×10^6 cells/mL) were added to 96-multiwell plates containing 100 μL of amastigote culture medium with an appropriate compound dilution series. 0.1% DMSO (no drug) served as a positive control (100%), and 5 μM amphotericin B served as a negative growth control (0%). Only internal wells were used to minimize edge effects from evaporation. Axenic amastigotes were incubated at 32° C. with a compound/drug for 72 h prior to measurement. Similarly, the cytotoxicity of each compound was determined against RAW 264.7 cells and HepG2 cell lines, following 72 h incubation at 37° C. (promastigotes at 26° C.).
10% alamarBlue® (Thermo Fisher Scientific) was used to measure the growth of both parasite and mammalian cells. Conversion from a blue oxidized state to a pink reduced state was assessed visually at 6 hr. The fluorescence signal was measured with a BioTek Synergy H1 plate reader (530 nm excitation, 570 nm emission). For bioluminescence assays using L. amazonensisluc, relative luminescence units (RLU) were measured using Britelite Plus (PerkinElmer, USA). Luminescence produced by this luciferase reaction is proportional to the amount of luciferase-expressing, viable L. amazonensisluc. Following five-minute incubation at room temperature, the luminescence was measured with a BioTek Synergy H1 plate reader.
All experiments were conducted as three technical triplicates on the same plate, with at least three independent biological repeats of each plate performed. For all assays, percent growth was expressed as a proportion of the untreated (positive) control (i.e. 100%) and plotted against drug/compound concentration. The concentration was then log10 transformed and EC50 values were determined using nonlinear regression (sigmoidal dose-response/variable slope equation) in GraphPad Prism v5.0 (GraphPad Software, Inc., San Diego, CA).
To identify antileishmanial compounds, a microplate-based alamarBlue® assay was used to quickly triage the 400 drug-like compounds available in the MMV Pathogen Box collection. […] A three-step process was used to screen the Pathogen Box: 1) identify hits against axenic amastigotes, 2) confirm the inhibitory concentrations of these hits against axenic amastigotes, 3) evaluate hits for potency against intracellular parasites using fluorescence and bioluminescence-based intracellular assays. The MMV Pathogen Box resource was tested at two concentrations (5 μM and 1 μM, 72 h endpoint) on axenic amastigotes.
Hits were defined as compounds that, at a concentration of 1 μM, decreased the relative fluorescence intensity signal to ≤70% of that produced by parasites incubated in vehicle (0.06% DMSO) only (FIG. 9).

[2] = molecular target: purified L. tarentolae tubulin (Leishmania tarentolae, UniProt A0A640KCM0+A0A640KQN0); assay: Tubulin polymerization turbidity assay, Leishmania tubulin; format: biochemical
Procedure: L. tarentolae (Parrot strain from ATCC) tubulin was purified. Briefly, promastigotes of L. tarentolae were grown to a high density (˜1×10^8 cells/mL), harvested, and resuspended in PME+P buffer containing 100 mM piperazine N, N′-bis (2-ethanesulfonic acid) (PIPES) buffer (pH 6.9), 1 mM glycol ether diamine tetraacetic acid (EGTA), 1 mM MgCl2, 1 mM benzamidine, 0.5 mM phenylmethylsulfonyl fluoride, 25 μg/ml leupeptin. The resulting suspension was extensively sonicated on ice with a probe sonicator (Misonix), cooled on ice for 30 minutes and centrifuged at 40,000×g for 1 hour at 4° C. using an ultracentrifuge (Beckman, Fullerton, CA). The resulting supernatant was filtered through a glass wool or 0.45-micron filter before loading into an equilibrated DEAE-Sepharose Fast Flow matrix (Amersham Biosciences). The column was washed with two column volumes of PME+P and subsequently four column volumes PME+P containing 0.1 M KCl and 0.25 M glutamate (pH 6.9). Tubulin was eluted with two column volumes PME+P containing 0.3 M KCl and 0.75 M glutamate (pH 6.9), and tubulin-rich fractions were confirmed by tubulin polymerization assays. The assembly-competent tubulin was pooled together and diluted into 1×PME buffer, 2 mM GTP, 10 mM MgCl2 and 8% DMSO (v/v). Tubulin was incubated in this buffer for 45 minutes at 30° C. to promote assembly, centrifuged at 50,000×g at 30° C. for 30 min, and re-suspended in 1 mL of ice-cold PME. […] Purity was assessed by SDS-PAGE and Coomassie Blue.
Tubulin polymerization assays were performed in 96-well half-area microplates (Costar) in a final volume of 100 μL. […] The absorbance at 340 nm was recorded in a Synergy H1 microplate reader (BioTek) for up to 45 min at 37° C. […]
To determine whether MMV676477 directly regulates microtubule assembly, assembly-competent tubulin from Leishmania tarentolae was purified and analyzed (FIG. 5A). […] 3 mg/mL purified L. tarentolae tubulin (3 mg/mL) was treated with serial dilutions of MMV676477 while the absorbance was measured at 340 nm over time.

purified porcine tubulin [3] = molecular target: T1, purified porcine tubulin (Sus scrofa, UniProt P02550+P02554); assay: Tubulin polymerization turbidity assay, mammalian tubulin; format: biochemical
T1 construct: purchased Cytoskeleton, Inc. T240
Procedure: Tubulin polymerization assays were performed in 96-well half-area microplates (Costar) in a final volume of 100 μL. Briefly, Leishmanial or porcine tubulin (>99% pure, Cat. #T240, Cytoskeleton, Inc.) in 50 μL volume was pre-treated with drugs on ice for 5 minutes before adding 50 μL ice cold buffer, to provide a final concentration of 3 mg/ml tubulin in 80 mM PIPES pH 6.9, 2 mM MgCl2, 0.5 mM EGTA, 1 mM GTP, and 1% DMSO unless specified otherwise. The absorbance at 340 nm was recorded in a Synergy H1 microplate reader (BioTek) for up to 45 min at 37° C. (porcine tubulin) or 30° C. (L. tarentolae tubulin).
(§1) To determine the selectivity of MMV676477, purified porcine tubulin was exposed to a serial dilution of the drug (0 to 25 μM) and absorbance was measured at 340 nm over time. […] To ensure that the absorbance seen at 340 nm reflected microtubule formation and not precipitation, a fluorescent microtubule assembly assay was employed.

[4] = system: cellular tubulin of L. amazonensis; assay: Polymerized vs. unpolymerized tubulin in parasites (differential centrifugation, western blot); format: cell-based, Leishmania amazonensis; settings: 24 h at EC50^72 h, densitometry
Source text: (§2) One reason why MMV676477 might affect parasite cell division is that, like paclitaxel, it might affect microtubule polymerization, either directly or indirectly. The degree to which MMV676477 affected microtubules polymerization in cells was examined. […] Centrifugation of these extracts allowed separation of insoluble polymeric (pellet) and soluble dimeric (supernatant) tubulin. […] The intensity of α-tubulin staining was examined by normalizing it to the intensity of a membrane protein (gp46 for promastigotes in FIG. 4D; p8 for amastigotes in FIG. 4E).

[5] = system: L. amazonensis promastigotes and amastigotes; assay: Tubulin intensity by confocal immunofluorescence microscopy; format: cell-based, Leishmania amazonensis; settings: 24 h at EC50^72 h
Procedure: Promastigotes or amastigotes were treated with the indicated compound concentrations and allowed to adhere to poly-L-lysine coated plates. All cells were fixed with 4% paraformaldehyde and permeabilized/blocked with 0.01% Triton X-100 and 2% BSA in PBS. Promastigotes and amastigotes were incubated with mouse anti-gp46 or anti-p8, respectively at 1:50 or 1:1000 and rat anti-alpha-tubulin antibody at 1:1000. Samples were then probed with A568 anti-mouse and […] secondary antibodies (Molecular Probes). DNA was labeled with Hoescht. Samples were visualized on a Zeiss LSM 880 Inverted confocal Airyscan microscope at 63×; full Z-thicknesses through parasites were obtained. […] For microscopic analysis of mitotic arrest, at least 200 parasites were analyzed per condition per experiment after 48 hrs incubation at compounds' EC50, and the average plus standard error for three experiments was calculated. Representative images were selected from the maximal intensity projections and linearly processed in Adobe Photoshop CS6.
as §2

purified porcine tubulin [6] = molecular target: T1, purified porcine tubulin; assay: Fluorescent microtubule assembly assay; format: biochemical; settings: mammalian tubulin, fluorescence micrographs
Procedure: as §1

## CC(=O)O[C@H]1C(=O)[C@@]2(C)[C@H]([C@H](OC(=O)c3ccccc3)[C@]3(O)C[C@H](OC(=O)[C@H](O)[C@@H](NC(=O)c4ccccc4)c4ccccc4)C(C)=C1C3(C)C)[C@]1(OC(C)=O)CO[C@@H]1C[C@@H]2O [paclitaxel]
[1]
  EC50: 760 nM
[2]
  EC50: 1300 nM
Purified porcine tubulin [3]; 3 mg/ml tubulin, 1% DMSO, A340
  EC50: 1500 ± 200 nM
Purified porcine tubulin [3]; mammalian tubulin
  Maximum absorbance (A340, 10% DMSO): 0.36
[4]
  proportion of cellular polymeric tubulin: significantly increased the proportion of cellular polymeric tubulin
[5]
  tubulin intensity over control (DMSO-treated): significant two-fold increase in tubulin intensity
Purified porcine tubulin [6]
  microtubules formed vs control: many more microtubules were formed
